Experimental data reported in patent US9266817B2, “Catecholamine derivatives for obesity and neurological disorders” (EMORY UNIVERSITY, priority 2009, dated 2016).
“Also recorded” adds a separate entry of the source.

Assays:
[1] = molecular target: T1, TrkB F616A (Mus musculus, UniProt P15209, F616A); assay: TrkB phosphorylation in TrkB F616A or TrkA F592A cortical neurons pretreated with K252a or 1NMPP1; format: cell-based, mice; conditions: primary TrkB F616A cortical neurons, 100 nM inhibitor 30 min, 500 nM compound
T1 construct: endogenous in cells; host or cells: primary cortical neurons from TrkB F616A knock-in mice
Protocol: (§1) TrkB F616A mice were pretreated with 1NMPP1 (50 μM) before L-DOPA or DOPS administration.
(§2) On day 7, the primary cortical neurons were pretreated with 100 nM K252a or 1NMPP1 for 30 min, followed by 500 nM ADPP and DDAP. Cell lysates were analyzed by Western blotting.

[2] = molecular target: T2, TrkB (Rattus norvegicus, UniProt Q63604); assay: Screening of catecholamine derivatives for TrkB activation in primary cortical neurons (anti-p-TrkB-Y-816 immunoblot); format: cell-based; conditions: 500 nM, 30 min
T2 construct: endogenous in cells; host or cells: primary rat cortical and hippocampal neurons
Protocol: Catecholamines can directly bind to the kinase domain of the TrkB receptor and activate it. However, the catecholamines are not able to cross through the blood brain barrier. […] Cortical neurons (7 DIV cortical neurons from 18 day old Sprague Dawley rat embryos) were treated with 500 nM of the selected compound for 30 min and cell lysates were prepared. The cell lysates ([…]) were analyzed for TrkB activation by immunoblotting with anti-p-TrkB-Y-816 antibody.
Catecholamine derivatives as described herein, including Compound I-2, Compound I-5, Compound I-7, Compound I-8, Compound I-9, Compound I-10, Compound I-11, Compound I-14, Compound I-15, Compound I-17, Compound I-18, and isoproterenol, were screened for TrkB activation in primary cortical neurons. Cortical neurons (7 DIV cortical neurons from 18 day old Sprague Dawley rat embryos) were treated with 500 nM of the selected compound for 30 min and cell lysates were prepared. The cell lysates ([…]) were analyzed for TrkB activation by immunoblotting with anti-p-TrkB-Y-816 antibody.

[3] = tested on: TrkB; assay: TrkB activation in mouse brain after administration of catecholamine derivatives (anti-p-TrkB-Y-816 immunoblot); format: in vivo; conditions: for Time at which TrkB activity peaked: 50 mg/kg orally; for TrkB activation in the brains of the mice: 50 mg/kg orally (in saline), C57BL/6J mice; for Oral bioavailability: mice; for Minimal dosage required to activate TrkB: orally, mice sacrificed after 4 hours; for TrkB activation in mouse brains: via drinking water or intraperitoneal injection
Protocol: To explore whether these compounds could stimulate TrkB in vivo, 50 mg/kg of Compound I-11, Compound I-8, and Compound I-2 (2-(methylamino)-3′,4′-dihydroxy-acetophenone) were each orally administered (in saline) to 2-month-old C57BL/6J mice. The mice were sacrificed at different time points and TrkB activation in the brains of the mice was monitored by immunoblotting with anti-p-TrkB-Y-816 antibody.
To determine the minimal required dosages for Compound I-11 and Compound I-8, different doses of the compounds were each orally administered to mice. The mice were sacrificed after 4 hours, and the brain lysates were analyzed by immunoblotting with anti-p-TrkB-Y-816 antibody.
To search for orally bioactive catecholamines, catecholamine derivatives described herein were screened using primary neuronal cultures. The in vitro active compounds, Compounds I-8 and I-11, were adminstered into two to three month old C57BL/6J mice orally, intraperitoneally, and in drinking water. For oral administration, the mice were administered 0 mg (control), 5 mg, 10 mg, 20 mg, or 50 mg of Compound I-8 or Compound I-11. After 4 hours, TrkB phosphorylation in mouse brain was monitored by analyzing the brain lysates using immunoblotting with anti-p-TrkB-Y-816 antibody. The ratios of p-TrK/total TrkB were quantified (FIG. 27A). For intraperitoneal administration, 50 mg/kg of Compound I-8 or Compound I-11 were intraperitoneally injected into the mice. The brain lysates were prepared at different times (0 hr, 1 hr, 2 hr, 4 hr, and 8 hr) and were analyzed by immunoblotting with anti-p-TrkB-Y-816 antibody (FIG. 27B). Compound I-8 and Compound I-11 were dissolved in drinking water and given to mice. After 24 h, the brain lysates were prepared and analyzed by immunoblotting with anti-p-TrkB-Y-816 antibody (FIG. 27C). […] Therefore, these compounds are useful in treating various neurological or neuropsychiatric diseases as described herein.

[4] = tested on: TrkB F616A knockin mice; assay: Kainic acid-induced neuronal apoptosis in TrkB F616A knockin mice (immunoblotting and Caspase-3 ELISA); format: in vivo; conditions: 50 mg/kg orally 2 hours before KA 20 mg/kg
Protocol: To determine whether Compound I-11 (ADPP) and Compound I-8 (DDAP) protect neurons from KA-induced apoptosis, TrkB F616A knockin mice were pretreated with inhibitor 1NMPP1 (16.6 ng/kg) 2 days before the experiment. Compound I-8 (DDAP) or Compound I-11 (ADPP) (50 mg/kg) was orally injected into the mice 2 hours before kainic acid (KA) administration (20 mg/kg). Brain lysates were analyzed by immunoblotting and Caspase-3 ELISA. […] The extent of the protective effect correlates with TrkB activation status by these compounds. Active Caspase-3 ELISA correlated with the immunoblotting results (FIG. 28B, right panel).

[5] = tested on: mice; assay: Forced swim test; format: in vivo; conditions: for Swimming immobility: 20 mg/kg intraperitoneally, adult male mice; for Immobility time after 1NMPP1 treatment: TrkB F616A knockin mice, 1NMPP1 pretreatment
Protocol: Accumulating evidence supports that BDNF plays an essential role in mediating antidepressants' therapeutic effects. Infusion of exogenous BDNF into hippocampus or brain stem has antidepressant-like behavioral effect. A forced swim test is broadly used for screening of potential antidepressant drugs and is widely used to measure antidepressant activity. To explore whether Compound I-11 (ADPP) and Compound I-8 (DDAP) have antidepressant effects like BDNF, forced swim tests were conducted. Adult male mice (2-3 months old, n=8) were randomly submitted, without a pre-swim, to a forced swim test of 6 minutes with immobility recorded in the last 4 minutes. Mice were injected intraperitoneally with saline, Compound I-11 (20 mg/kg), or Compound I-8 (20 mg/kg). The mice were allowed to adapt to the test room for 2 days, and the mice were placed in a clear glass cylinder with a diameter of 16 cm, half-filled with clear water at 24° C.
To assess whether the behavior responses caused by catecholamine derivatives is mediated by TrkB receptor, TrkB F616A knockin mice were utilized. The mice were subjected to saline or 1NMPP1 inhibitor pretreatment.

[6] = molecular target: T2, TrkB; assay: Immunoblotting of TrkB phosphorylation in primary cortical neurons treated with catecholamines; format: cell-based; conditions: cortical neurons
Protocol: Primary cultured rat cortical neurons were prepared as follows. E17 rat pups were decapitated and cortex was extirpated, cross chopped and suspended by pipetting for separation in 5% fetal calf serum (FCS), 5% horse serum (HS) DMEM. The cell suspension was then centrifuged at 250×g for 5 min. This operation was repeated. Cells were seeded into polyethyleneimine-coated 10 cm^2 dishes and 12-well plates including coated-coverslips and incubated at 37° C. in 5% CO2/95% air. After 3 hours, the culture medium was changed to Neurobasal containing B-27 supplement (Invitrogen; Carlsbad, Calif.) and incubated for 4 days. For maintenance, half of the culture medium was changed to fresh Neurobasal/B27 in every 4 days. After 1 week, the dished cultured neurons were ready for use.
To explore whether monoamine neurotransmitters, including catecholamines (see, e.g., FIG. 1), could stimulate TrkB activation, hippocampal neurons were treated with 300 nM of catecholamines, serotonin, and melatonin for 30 min.

[7] = molecular target: T3, TrkB F616A (Mus musculus, UniProt P15209); assay: TrkB phosphorylation in TrkB F616A or TrkA F592A cortical neurons pretreated with K252a or 1NMPP1; format: cell-based, mice
T3 construct: endogenous in cells; host or cells: primary cortical neurons from TrkB F616A knock-in mice
Protocol: as §1, §2

[8] = molecular target: T4, TrkB intracellular domain (ICD) (Homo sapiens, UniProt Q16620); assay: In vitro binding assay with purified TrkB ICD and 3H-ligands (Scatchard plot); conditions: purified protein, 25° C., 30 minutes; read-out: TrkB binding constants (Scatchard plot)
T4 construct: purified ECD (extracellular domain) and ICD (intracellular domain) proteins from Trk receptors
Protocol: Purified TrkA and TrkB ECD or ICD proteins were incubated with different ^3H-catecholamines at 25° C. for 30 minutes in 1 ml of binding buffer (50 mM Tris-HCl, pH 7.4, 100 mM NaCl, 5 nM ^3H-catecholamines (32000 cpm)). After the incubation, the reaction mixture was loaded on a Whatman glass-fiber filter (GF-B) (Whatman Inc.; Piscataway, N.J.). The mixture was washed with 3×5 ml washing buffer (50 mM Tris-HCl, pH 7.4). The dried filter paper was put into a small vial and subjected to liquid scintillation counter analysis. The value of the dissociate constant and the number of sites were obtained from Scatchard plots by using the equation r/[L]free =n/Kd−r/Kd, where r is the ratio of the concentration of bound ligand to the total protein concentration and n is the number of binding sites.
To determine whether catecholamines bind TrkB directly, an in vitro binding assay was conducted with purified ECD (extracellular domain) and ICD (intracellular domain) proteins from Trk receptors and ^3H-catecholamines. […] To determine whether the binding by catecholamines to TrkB receptor caused dimerization, GST-TrkB was co-transfected into HEK293 cells with HA-TrkB, followed by BDNF or monoamines treatment for 15 minutes.

[9] = molecular target: T2, TrkB; assay: TrkB activation in cortical neurons after pretreatment with antibodies, receptor antagonists, transporter inhibitors or EDTA (anti-p-TrkB-Y-816 immunoblot); format: cell-based
Source text: Both antidepressants and exercise increase hippocampal BDNF mRNA expression through enhanced 5-HT and/or NE neurotransmission (Siuciak et al., Pharmacol. Biochem. Behav., 56:131-137, 1997; Dias et al., Neuropharmacology, 45:553-563, 2003; Ivy et al., Pharmacol. Biochem. Behav., 75:81-88, 2003; Garza et al., Pharmacol. Biochem. Behav., 77:209-220, 2004). If catecholamines activated TrkB signaling indirectly by promoting BDNF generation, then scavenging BDNF with its specific antibody would be expected to diminish catecholamines-mediated activation of TrkB. Cultured cortical neurons were pretreated with BDNF-IgG for 30 minutes followed by exposure to BDNF (10 ng/ml) or catecholamines (100 nM) for 15 minutes. […] It was then determined whether catecholamines could activate TrkB in neurons cultured from mice carrying a null mutation of BDNF.
To further investigate the specificity of catecholamines in inducing TrkB activation, cortical neurons were pretreated with control IgG or norepinephrine IgG, a rabbit polyclonal antibody for norepinephrine, followed by catecholamines.
(§3) It was then determined whether catecholamines could activate TrkB in neurons cultured from mice carrying a null mutation of NET.
(§4) The cell lysates were analyzed by immunoblotting with anti-p-TrkB-Y-816.
as §4
A group of primary cortical neurons were pretreated with 1 mM EDTA, and another group of primary cortical neurons were not pretreated. Both groups of primary cortical neurons were then treated with either Zn (100 μM) or a catecholamine (100 nM) for 15 minutes. The neuronal cell lysates were analyzed by immunoblotting with anti-p-TrkB-Y-816 antibody.

[10] = molecular target: T5, TrkB (Mus musculus, UniProt P15209); format: cell-based, mice; conditions: compared to wild-type control neurons
T5 construct: endogenous in cells; host or cells: primary cortical neurons from BDNF-null, TrkB +/- cross, TrkC knockout and NET -/- mice
Protocol: as §3

[11] = tested on: TrkB F616A cortical neurons; assay: Glutamate-provoked apoptosis of TrkB F616A cortical neurons (TUNEL assay); format: cell-based, mice; conditions: 50 mM glutamate overnight
Protocol: Norepinephrine has neuroprotective activity against oxidative stress-induced neuronal apoptosis. To investigate whether this protective action by norepinephrine is mediated through TrkB, apoptosis of TrkB F616A cortical neurons was monitored. Primary cortical neurons were pretreated with inhibitors K252a or 1NMPP1 followed by overnight treatment with 50 mM glutamate.

[12] = molecular target: TrkB (Homo sapiens, UniProt Q16620); assay: Activation of transfected TrkB in HEK293 cells with or without DAT or NET; format: cell-based; parameters: expressed in transfected cells; host or cells: HEK293; conditions: NET transfected HEK293 cells
Chain of TrkB (Homo sapiens, UniProt Q16620) (Q16620 32-822, species assumed): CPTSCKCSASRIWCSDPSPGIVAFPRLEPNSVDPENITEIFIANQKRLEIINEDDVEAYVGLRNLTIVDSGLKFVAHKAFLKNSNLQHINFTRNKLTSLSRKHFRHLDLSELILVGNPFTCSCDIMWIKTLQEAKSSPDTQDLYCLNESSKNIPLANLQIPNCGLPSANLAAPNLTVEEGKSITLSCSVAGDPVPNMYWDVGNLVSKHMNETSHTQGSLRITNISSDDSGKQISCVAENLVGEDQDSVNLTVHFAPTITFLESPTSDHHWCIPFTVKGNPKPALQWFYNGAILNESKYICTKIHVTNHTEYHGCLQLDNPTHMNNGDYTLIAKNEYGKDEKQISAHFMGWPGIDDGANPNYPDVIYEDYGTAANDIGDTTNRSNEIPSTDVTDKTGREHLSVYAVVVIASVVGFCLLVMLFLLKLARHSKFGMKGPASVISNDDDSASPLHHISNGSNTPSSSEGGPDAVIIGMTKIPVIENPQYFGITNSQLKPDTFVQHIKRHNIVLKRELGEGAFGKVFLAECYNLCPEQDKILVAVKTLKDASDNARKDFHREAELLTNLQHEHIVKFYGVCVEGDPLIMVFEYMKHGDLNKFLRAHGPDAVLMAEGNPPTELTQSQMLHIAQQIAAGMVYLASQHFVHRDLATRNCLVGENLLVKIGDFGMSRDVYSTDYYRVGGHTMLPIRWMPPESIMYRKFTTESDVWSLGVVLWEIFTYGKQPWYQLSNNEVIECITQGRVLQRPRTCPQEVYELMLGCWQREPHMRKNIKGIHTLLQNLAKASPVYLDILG

T2 sequence (Q63604 32-821): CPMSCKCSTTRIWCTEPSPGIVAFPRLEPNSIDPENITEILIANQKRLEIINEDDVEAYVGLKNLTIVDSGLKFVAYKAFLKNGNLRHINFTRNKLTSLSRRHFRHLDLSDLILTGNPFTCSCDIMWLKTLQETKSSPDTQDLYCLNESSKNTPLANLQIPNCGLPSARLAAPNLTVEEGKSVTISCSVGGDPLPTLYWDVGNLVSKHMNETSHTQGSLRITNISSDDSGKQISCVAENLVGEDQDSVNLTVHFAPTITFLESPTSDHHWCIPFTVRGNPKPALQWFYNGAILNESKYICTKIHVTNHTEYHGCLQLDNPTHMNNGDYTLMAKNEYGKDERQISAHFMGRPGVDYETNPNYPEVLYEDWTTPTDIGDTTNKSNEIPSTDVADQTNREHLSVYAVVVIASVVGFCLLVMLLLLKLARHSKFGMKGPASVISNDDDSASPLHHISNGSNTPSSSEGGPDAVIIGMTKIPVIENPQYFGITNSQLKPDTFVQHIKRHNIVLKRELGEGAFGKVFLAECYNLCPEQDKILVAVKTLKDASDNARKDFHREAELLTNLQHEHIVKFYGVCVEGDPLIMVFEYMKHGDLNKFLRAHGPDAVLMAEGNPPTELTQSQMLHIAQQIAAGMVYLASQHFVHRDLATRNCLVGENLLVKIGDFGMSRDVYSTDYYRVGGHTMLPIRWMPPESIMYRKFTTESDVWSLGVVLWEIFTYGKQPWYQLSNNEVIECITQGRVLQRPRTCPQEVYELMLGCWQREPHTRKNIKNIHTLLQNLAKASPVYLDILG
T1 sequence (P15209 32-821 F616A): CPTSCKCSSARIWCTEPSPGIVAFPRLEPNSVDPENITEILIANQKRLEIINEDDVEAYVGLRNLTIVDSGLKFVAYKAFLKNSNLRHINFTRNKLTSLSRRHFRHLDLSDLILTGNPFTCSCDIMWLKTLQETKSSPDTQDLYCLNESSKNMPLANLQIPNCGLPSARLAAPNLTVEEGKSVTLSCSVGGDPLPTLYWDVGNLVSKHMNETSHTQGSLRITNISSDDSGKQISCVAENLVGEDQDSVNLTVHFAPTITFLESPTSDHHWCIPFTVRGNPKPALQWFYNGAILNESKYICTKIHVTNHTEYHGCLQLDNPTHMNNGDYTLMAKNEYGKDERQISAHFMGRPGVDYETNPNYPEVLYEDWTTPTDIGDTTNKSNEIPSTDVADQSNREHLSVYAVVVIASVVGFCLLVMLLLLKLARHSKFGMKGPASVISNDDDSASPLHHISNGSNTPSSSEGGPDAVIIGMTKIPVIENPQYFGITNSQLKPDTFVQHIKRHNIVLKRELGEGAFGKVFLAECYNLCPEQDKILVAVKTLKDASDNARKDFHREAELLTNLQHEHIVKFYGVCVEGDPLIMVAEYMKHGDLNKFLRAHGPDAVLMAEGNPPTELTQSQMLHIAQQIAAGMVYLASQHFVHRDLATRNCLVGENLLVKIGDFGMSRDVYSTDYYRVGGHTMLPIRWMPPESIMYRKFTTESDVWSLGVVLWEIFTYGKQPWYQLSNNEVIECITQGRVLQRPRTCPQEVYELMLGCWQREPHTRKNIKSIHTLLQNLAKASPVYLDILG
T5 sequence (P15209 32-821): as the sequence (P15209 32-821 F616A) above, with A585F counted along it
T3 sequence (P15209 32-821 F616A): as the sequence (P15209 32-821 F616A) above
T4 sequence (Q16620 455-822 limits assumed): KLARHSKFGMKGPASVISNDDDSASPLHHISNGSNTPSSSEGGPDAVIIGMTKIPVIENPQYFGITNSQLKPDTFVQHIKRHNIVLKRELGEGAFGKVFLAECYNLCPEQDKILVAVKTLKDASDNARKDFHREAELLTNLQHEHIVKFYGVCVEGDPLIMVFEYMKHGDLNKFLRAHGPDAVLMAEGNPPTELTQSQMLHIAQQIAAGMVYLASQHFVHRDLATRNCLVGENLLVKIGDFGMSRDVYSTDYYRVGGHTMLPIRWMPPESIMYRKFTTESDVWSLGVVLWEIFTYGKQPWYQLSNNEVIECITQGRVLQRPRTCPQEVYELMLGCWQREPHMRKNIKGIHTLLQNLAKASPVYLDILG

Row | Compound | TrkB activation by the compound after K252a or 1NMPP1 pretreatment [1] | TrkB activation in primary cortical neurons [2] | Time at which TrkB activity peaked [3] | TrkB activation in the brains of the mice [3] | Oral bioavailability [3] | Passage through the blood brain barrier ([3]; mouse, in vivo, po) | Minimal dosage required to activate TrkB [3] | TrkB activation in mouse brains [3] | Kainic acid (KA)-provoked neuronal cell death in mouse brain [4] | Swimming immobility [5] | Immobility time after 1NMPP1 treatment [5] | Passage through the blood brain barrier ([3]; orally administered, mouse brain) | Effect of K252a pretreatment on catecholamine-triggered TrkB tyrosine phosphorylation [6] | Effect of inhibitor on catecholamine-induced TrkB activation [7] | Kd [8] | Effect of norepinephrine IgG on the agonistic effect of the substance on TrkB activation ([9]; IgG 15 min, then 300 nM catecholamines 15 min) | Effect of norepinephrine IgG on the agonistic effect of the substance ([9]; compared to control IgG) | TrkB activation in NET -/- neurons [10] | Glutamate-provoked neuronal cell death [11] | Increase of stimulatory activity by overexpression of NET compared to control cells [12]
1 | CN(C)CC(=O)c1ccc(O)c(O)c1 [Compound I-8, α-dimethylamino-3′,4′-dihydroxyacetophenone] | selectively blocked by 1NMPP1 but not K252a | prominently activated TrkB; also recorded: prominent stimulatory effect | 8 h | potently activated TrkB | orally bio-available | can pass through the blood brain barrier | 20 mg/kg | potently activate TrkB | potently suppress; also recorded: robustly repressed | significantly decreased | no significant effect | – | – | – | – | – | – | – | – | –
2 | CC(N)C(=O)c1ccc(O)c(O)c1 (stereo not drawn) [Compound I-11, 2-amino-3′,4′-dihydroxy-propiophenone] | selectively blocked by 1NMPP1 but not K252a | prominently activated TrkB; also recorded: prominent stimulatory effect | 8 h | potently activated TrkB | orally bio-available | – | 10 mg/kg | potently activate TrkB | potently suppress; also recorded: robustly repressed | significantly decreased | still active in decreasing immobility | can pass through the blood brain barrier | – | – | – | – | – | – | – | –
3 | COC(=O)[C@@]1(O)C[C@H]2O[C@]1(C)n1c3ccccc3c3c4c(c5c6ccccc6n2c5c31)C(=O)NC4 [Compound K252a] | – | – | – | – | – | – | – | – | – | – | – | – | robustly blocked | robustly inhibited | – | – | – | – | – | –
4 | NC[C@H](O)c1ccc(O)c(O)c1 [norepinephrine] | – | – | – | – | – | – | – | – | – | – | – | – | – | – | 98 µM | selectively inhibited | selectively neutralized | completely blocked | robustly suppressed | approximately 100 fold
